# How the values were obtained:
# Format in all cases: cell-based
# [1] = tested on: INS1 cells expressing MitoTimer; assay: MitoTimer red/green ratio high-content screen and dose-response
# Procedure: INS1 cells were stably transduced with MitoTimer by lentiviral infection and were tested using known modulators of autophagy. The paradigm used was based on previous reports showing that the shift in emission from green to red occurs within 18 hours. Assuming that this shift is constant, changes in red FI occurring during this frame of time can result from an effect on MitoTimer clearance and not from an effect on synthesis. The paradigm employed consisted therefore of a treatment lasting 18 hours followed by imaging.
# Stimulators of mitochondrial clearance were defined as those inducing a red-to-green FI below −3 and a red intensity below −5.1. Suppressors of mitochondrial clearance were defined as those inducing a red-to-green FI above 10.34 and a red intensity above 4.5. […] Compounds displaying high green FI (above 15) were also discarded to prevent the inclusion of autofluorescent molecules. Only molecules that filled the above criteria in both duplicates were further tested.
# The screen was performed during 8 sessions in Weizmann institute. All compounds were tested at a concentration of 10 μM, in duplicates. The images were processed to reduce background (using Metamorph software) and then analyzed in GeneData software.
# We subjected those compounds to a dose-response assay (concentrations: 10, 3.33, 1.11, 0.37 and 0.12 μM).
# MitoTimer expressing INS1 cells generation, Cell Culture and treatments. MitoTimer-reporter was cloned into the pHAGE2 lenti-vector under the full-length EF1-alpha promoter to obtain constitutive expression. For the HCS, INS1 cells were infected with lentivirus carrying mitochondrial complex-I-targeted-MitoTimer plasmid. Highly expressing cells were selected by high speed fluorescence activated cell sorter (SY3200 cell sorter, Synergy, iCyt) and kept by the addition of puromycin (1 mg . L-1) in the cell media. Cells were thawed before each experiment, and MitoTimer expression checked through fluorescence.
# High-Content Screening. […] HCS assay was developed at the Drug Discovery Unit, INCPM, Weizmann Institute of Science. […] Briefly, cells were treated with 10 uM of each compounds for 18 h and imaged in two wavelengths (FITC—excitation […], emission 520/35 nm and TRITC—excitation 543/22 nm, emission 593/40 nm) at ImageXpress Micro High-Content Imaging System/Molecular Devices. Rapamycin 100 nM was used as a control. In each cell plate, the neutral (DMSO) and positive control (Rapamycin) were repeated in 16 replicates while the treatments were performed in duplicates. Each plate was replicated and only hits found in the 2 independent plates were considered. Two fields of each well were analyzed, what normally allowed the analysis of 20-40 cells per condition. MitoTimer red/green ratio for every cell was done in MetaXpress. […] The compounds which affected MitoTimer red/green ratio in a dose response, ranging from […], were classified as a hit.
# Individual cells were identified using the red channel, and red and green MitoTimer fluorescence were analyzed and ratio determined per cell.
# INS1 cells [2] = assay: Western blot against LC3 (autophagic flux)
# Procedure: The Z-score depicts the standard deviation from the neutral control (DMSO). In FIG. 3C: Mitochondrial mass in INS1 cells treated for 18 hours with either DMSO (control), Urolithin A (25 μM), SPB08007 (“SBP”) (25 μM) or MWP00839 (“MWP”) (11.5 μM) and then stained with Mitotracker green (200 nM). In FIG. 3D: SPB08007 and MWP00839 increase the number of mitochondria inside autolysosomes. INS1 cells expressing mCherry-GFP were exposed to SPB08007, MWP00839, and DMSO for 8 hours and then subjected to confocal microscopy. The area of red fluorescence in the taken images was determined. N=3+/−SEM pANOVA<0.05. FIG. 3E provides representative images. […] FIG. 3F provides the Western blot against LC3 in INS1 cells treated with the compounds in presence or absence of bafilomycin (+b) for the last 2 hours.
# INS1 cells [3] = assay: Western blot for mitochondrial proteins; conditions: 24 h
# Procedure: INS1 cells expressing Mitotimer under EF-1 alpha promoter were treated for 18 hours with rapamycin (100 nM). […] FIGS. 2B and 2C show a Western blot for mitochondrial proteins upon treatment with rapamycin. Note that rapamycin increased mitochondrial mass.
# Cell treatments and mitochondrial extraction. INS1 cells were treated with SBP08007 or MWP00839 25 uM for 24 h. Mitochondrial and cytosolic fractions from INS1 cells were performed by using the Mitochondria Isolation Kit for Cultured Cells (Pierce). INS1 cells were lysed in a hypotonic buffer (10 mM NaCl, 1.5 mM MgCl2, and 10 mM Tris.HCl, pH 7.5), and mitochondria were extracted in a Dounce homogenizer in mitochondrial buffer (1 mM EDTA, 210 mM mannitol, 70 mM sucrose, and 5 mM Tris.HCl, 7.5), followed by centrifugation at 1,300×g for 10 min at 4° C. The supernatant was further centrifuged at 17,000×g for 15 min at 4° C. to pellet the mitochondria. The crude mitochondrial fraction was resuspended for washing and centrifuged at 17,000×g for 15 min at 4° C. The pellets were collected as the mitochondrial fraction.
# Western blot. Cell lysates were diluted in Laemmli sample buffer (100 mM Tris-HCl, 2% SDS, 10% glycerol, 0.1% bromophenol blue) containing 5% beta-mercaptoethanol. After heating at 95° C. for 5 min, proteins were separated by SDS-PAGE previously added of Stain Free reagent (BioRad), and transferred onto PVDF membranes. Membranes were blocked with 5% non-fat milk and detection of individual proteins was carried out by blotting with specific primary antibodies against ubiquitin (Calbiochem 1:1,000). Chemiluminescence detection using a secondary peroxidase-linked anti-rabbit (Calbiochem; 1:10,000) and a detection system from Pierce KLP (Rockford, Ill., USA) was performed. Stain free total protein labeling was imaged in Image Lab 6.0 Software (BioRad), which was used for quantification of the mitochondria and normalization to total protein staining.
structure (smiles),measurement,setting,value
CC(=O)N/C(=C\c1sc2ccccc2c1C)C(=O)O [SPB08007],red/green MitoTimer ratio,"[1]; 10 uM, INS1 cells",reduced
same,MitoTimer green readout,[1]; 50 uM dose,increase
same,maximum reduction on the ratio index (MitoTimer red/green),"[1]; 50 uM dose, 18 h, vs DMSO",40%
same,optimal dose for stimulating a reduction in red-to-green FI,"[1]; INS1 cells, 18 h",25 µM
same,"activity (MitoTimer red-to-green FI, Z-score vs DMSO)","[1]; INS1 cells, 18 h, dose-response",−3.018
same,EC50,"[1]; Rattus norvegicus, INS1 cells, 18 h, dose-response, read-out: qEC50",49 µM
same,"autophagy (LC3II, with or without bafilomycin)",INS1 cells [2],increase in autophagy
same,CI-NDFUB8 levels,INS1 cells [3]; 25 uM,unaffected
same,SDHB (Complex II) protein level increase,"INS1 cells [3]; 25 uM, relative to DMSO",2 fold
same,UQCRC2 (Complex III) protein level increase,"INS1 cells [3]; 25 uM, relative to DMSO",1.5 fold
same,overall mitochondrial protein,INS1 cells [3],reduces
